From ChEMBL document CHEMBL1201862, “PubChem BioAssay data set” (2004)
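Exposure lasted 48 hours, with cells grown in 96-well plates and compounds tested at five concentrations. At the GI50, growth is halved.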 Active and inactive are the calls of the source. Cut-off read from the data, not from the text of the source: active = GI50 up to about 1.1 µM and inactive = higher.

Columns and labels:
Assay in all cases: DTP human tumour cell line panel, 48 h
Malme-3M = tested on: Malme-3M
SW-620 = tested on: SW-620
SR = tested on: SR
OVCAR-4 = tested on: OVCAR-4
UACC-62 = tested on: UACC-62
Hs-578T = tested on: Hs-578T
HCT-15 = tested on: HCT-15
SN12C = tested on: SN12C
UACC-257 = tested on: UACC-257
MDA-N = tested on: MDA-N
M14 = tested on: M14
MDA-MB-231 = tested on: MDA-MB-231
CCRF-CEM = tested on: CCRF-CEM
SNB-19 = tested on: SNB-19
A498 = tested on: A498
SK-MEL-5 = tested on: SK-MEL-5
786-0 = tested on: 786-0
SNB-78 = tested on: SNB-78
NCI-H226 = tested on: NCI-H226
LXFL 529 = tested on: LXFL 529

| Compound | GI50 (Malme-3M) | GI50 (SW-620) | GI50 (SR) | GI50 (OVCAR-4) | GI50 (UACC-62) | GI50 (Hs-578T) | GI50 (HCT-15) [µM] | GI50 (SN12C) | GI50 (UACC-257) | GI50 (MDA-N) | GI50 (M14) | GI50 (MDA-MB-231) | GI50 (CCRF-CEM) | GI50 (SNB-19) | GI50 (A498) | GI50 (SK-MEL-5) | GI50 (786-0) | GI50 (SNB-78) | GI50 (NCI-H226) | GI50 (LXFL 529) |
| --- | --- | --- | --- | --- | --- | --- | --- | --- | --- | --- | --- | --- | --- | --- | --- | --- | --- | --- | --- | --- |
| N#CC(Cl)CS(=O)(=O)c1ccccc1 (stereo not drawn) | 2.07 µM (inactive) | 1.68 µM (inactive) | 1.8 µM (inactive) | 2.03 µM (inactive) | 12.2 µM (inactive) | 11.8 µM (inactive) | 2.14 | 16.5 µM (inactive) | 7.14 µM (inactive) | 8.09 µM (inactive) | 4.76 µM (inactive) | 19.7 µM (inactive) | 0.628 µM (active) | 18.9 µM (inactive) | 13.6 µM (inactive) | 15.8 µM (inactive) | 16.8 µM (inactive) | 21.1 µM (inactive) | 22.1 µM (inactive) | – |
| COc1cc(-c2nn3c(=O)n(-c4ccc(Cl)cc4)c(=O)nc3s2)cc(OC)c1OC | 65.9 µM (inactive) | > 100 µM (inactive) | – | 41.9 µM (inactive) | > 50 µM (inactive) | – | > 88.3 | > 96.2 µM (inactive) | > 58.7 µM (inactive) | – | 39.2 µM (inactive) | – | > 100 µM (inactive) | 19.1 µM (inactive) | > 67 µM (inactive) | > 52.4 µM (inactive) | 12.3 µM (inactive) | 19.4 µM (inactive) | > 55.7 µM (inactive) | – |
| COc1cc(-c2cc(=O)c3ccccc3o2)ccc1N | > 100 µM (inactive) | 92.7 µM (inactive) | – | 54.5 µM (inactive) | 79.8 µM (inactive) | – | 27 | 65.8 µM (inactive) | > 100 µM (inactive) | – | > 100 µM (inactive) | – | 40.6 µM (inactive) | 43.4 µM (inactive) | 27.2 µM (inactive) | 41.1 µM (inactive) | > 100 µM (inactive) | > 100 µM (inactive) | 15.2 µM (inactive) | > 100 µM (inactive) |
| c1ccc(CCN2CCOCC2)nc1 | > 100 µM (inactive) | > 100 µM (inactive) | > 100 µM (inactive) | > 100 µM (inactive) | > 100 µM (inactive) | > 100 µM (inactive) | > 100 | > 100 µM (inactive) | > 100 µM (inactive) | > 100 µM (inactive) | > 100 µM (inactive) | > 100 µM (inactive) | > 100 µM (inactive) | > 100 µM (inactive) | > 100 µM (inactive) | > 100 µM (inactive) | > 100 µM (inactive) | – | > 100 µM (inactive) | – |
| CO/N=C(/C(=O)Nc1c[n+](CC(=O)[O-])cs1)c1csc(N)n1 | > 100 µM (inactive) | > 100 µM (inactive) | – | – | > 100 µM (inactive) | – | > 100 | > 100 µM (inactive) | > 100 µM (inactive) | – | > 100 µM (inactive) | – | > 100 µM (inactive) | > 100 µM (inactive) | > 100 µM (inactive) | > 100 µM (inactive) | > 100 µM (inactive) | > 100 µM (inactive) | > 100 µM (inactive) | > 100 µM (inactive) |
| C(=C\C(Sc1ccccc1)c1ccccc1)/NNC1=NN=C(c2ccccc2)C(c2ccccc2)N1 (stereo not drawn) | 50 µM (inactive) | 21.8 µM (inactive) | 25.9 µM (inactive) | 83 µM (inactive) | 21.5 µM (inactive) | – | 23.5 | 55 µM (inactive) | > 100 µM (inactive) | – | 75 µM (inactive) | – | 10.2 µM (inactive) | 48.6 µM (inactive) | – | 45.9 µM (inactive) | 65.2 µM (inactive) | > 100 µM (inactive) | 64.4 µM (inactive) | – |
| c1cncc(CSc2nc3ccccc3nc2-c2cccs2)c1 | 46.1 µM (inactive) | 91.4 µM (inactive) | 40.9 µM (inactive) | 53.6 µM (inactive) | – | – | 81.1 | 77.1 µM (inactive) | > 100 µM (inactive) | – | 92.5 µM (inactive) | – | 30.6 µM (inactive) | 77.6 µM (inactive) | – | > 100 µM (inactive) | 58.2 µM (inactive) | > 100 µM (inactive) | 70 µM (inactive) | – |
| Cn1c(=O)cc(NCCc2ccccc2)[nH]c1=O | 34.8 µM (inactive) | 27.5 µM (inactive) | 9.1 µM (inactive) | > 100 µM (inactive) | 19.9 µM (inactive) | 14.1 µM (inactive) | 29.3 | 23.3 µM (inactive) | 50 µM (inactive) | 3.7 µM (inactive) | 27.8 µM (inactive) | 12.3 µM (inactive) | 31.7 µM (inactive) | 77.8 µM (inactive) | 46 µM (inactive) | 18.8 µM (inactive) | 41 µM (inactive) | – | > 100 µM (inactive) | – |
| COC(=O)c1c(O)ccc2c1c1c(n2Cc2ccc(OC)cc2)C(=O)c2ccccc2C1 | > 100 µM (inactive) | 82.8 µM (inactive) | 66.2 µM (inactive) | 30.8 µM (inactive) | > 100 µM (inactive) | > 100 µM (inactive) | 52.1 | 27 µM (inactive) | 44.4 µM (inactive) | 53.1 µM (inactive) | 38.7 µM (inactive) | 32.4 µM (inactive) | 21.9 µM (inactive) | 71 µM (inactive) | > 100 µM (inactive) | 44.6 µM (inactive) | 53.2 µM (inactive) | – | > 100 µM (inactive) | – |
